In patent publication US11045435B2, “Methods for treating ocular diseases” (NATUREWISE BIOTECH & MEDICALS CORPORATION, priority 2016, dated 2021):

Tests used:
[1] = system: HUVECs; assay: NaIO3-induced injury in HUVECs (MTT); type: cell-based, human; settings: 72 h
Experimental: (§1) MTT assay was used to measure the viability of ARPE-19 cells and HUVECs. 2×10^5 ARPE-19 cells or 5×10^4 HUVECs were seeded in 96-well plates ([…]) and allowed to grow overnight. Negative control was prepared by adding 100 μl medium without cells. The cells were then treated with fresh medium with COMPOUND I (0.03, 0.1, 0.3, 1, 3 and 10 μg/ml) and/or oxidants (NaIO3, H2O2, t-BHP and NaN3) for 12, 24, or 72 hours (200 μl/well). The vehicle control group was treated with vehicle. 20 μl MTT (5 mg/ml) was added to wells, and incubated for another 4 h. After incubation, the medium was discarded and 100 μl DMSO was added to solubilize formazan produced from MTT by the viable cells. Absorbance was measured at 570 nm using a microplate reader (Bio-Rad Laboratories, Inc., CA). Cells viability was calculated according to the following formula: Viability of cells (%)=(absorbance in tested sample−absorbance in negative control)/(absorbance in vehicle control−absorbance in negative control)×100%.

[2] = system: HUVECs; assay: t-BHP-induced injury in HUVECs (MTT); type: cell-based, human; settings: 12 h; for reversal of t-BHP-induced injury: 200 I-M t-BHP; for enhancement of t-BHP-induced injury: 10 μg/ml
Experimental: as §1

[3] = system: HUVECs; assay: H2O2-induced injury in HUVECs (MTT); type: cell-based, human; settings: 10 μg/ml, 24 h
Experimental: as §1

[4] = system: Rabbit with Experimental Ocular Hypertension; assay: Ocular blood flow (colored microspheres) in rabbit with experimental ocular hypertension; type: in vivo, New Zealand white rabbits; settings: 1% topical, 50 μl
Experimental: Rabbits were anesthetized with 35 mg/kg ketamine and 5 mg/kg Balanzine (10% xylazine) by intramuscular injection. Half of the initial dose was given every one hour thereafter. The left ventricle was cannulated through the right carotid artery for injection of colored microspheres and the femoral artery was cannulated for collection of blood samples. The left eye was treated with one drop of proparacaine hydrochloride ophthalmic solution (Bausch & Lomb, Inc., Tampa, Fla., USA). The needle was inserted directly into the anterior chamber of the left eye, which was connected to the 40 mmHg saline manometer. The ocular hypertensive model reduced the ocular blood flow to approximately one third of the normal valued. […] The ocular blood flow was measured by colored microspheres at 0, 30, 60 and 120 minutes after treatment with COMPOUND I or vehicle. […] The blood sample was collected in a heparinized tube and the volume was recorded. […]
The details of sample processing and microspheres counting were provided by E-Z Trac (Los Angeles, Calif., USA). […] The number of microspheres was counted by the hemocytometer under the microscope. […] The protocol thereafter was the same as that used to process the blood samples, and the microspheres were counted.
The blood flow of each tissue at a certain time point was calculated according to the following formula: Qm=(Cm×Qt)/Cr. […]

COc1ccc(COc2c(/C=C/C(=O)NO)ccc(OC)c2CC=C(C)C)cc1 [COMPOUND I]
effect on 300 μg/ml NaIO3-induced injury ([1]; 0.03 μg/ml to 1 μg/ml, 300 μg/ml NaIO3): reversed | effect on viability in NaIO3-induced injury ([1]; 10 μg/ml): significantly enhanced the viability | reversal of t-BHP-induced injury ([2]; 1 μg/ml): 26% | reversal of t-BHP-induced injury ([2]; 3 μg/ml): 28% | enhancement of t-BHP-induced injury ([2]; 50 μM t-BHP): 40% | enhancement of t-BHP-induced injury ([2]; 100 μM t-BHP): 20% | enhancement of t-BHP-induced injury ([2]; 200 μM t-BHP): 51% | enhancement of H2O2-induced injury ([3]; 200 μM H2O2): 41% | enhancement of H2O2-induced injury ([3]; 400 μM H2O2): 10% | blood flow in ciliary body and choroid ([4]; 30 minutes and 60 minutes after instillation): markedly increased | blood flow in all tissues (iris, ciliary body, retina, choroid) ([4]; 120 minutes after instillation): significantly increased
